≈ marks a conversion by molar mass, not a printed value. Where two headings read alike, the source gives them in different places.
Tests used:
[1] = system: Bacillus subtilis PCI 219; assay: MIC, in vitro antibacterial activity (standard strains); assay type: cell-based; settings: Bacillus subtilis, PCI219; 10^6 cells/ml; Gram +; read-out: MIC
[2] = system: S. aureus IID 670 (Terajima); assay: as above; assay type: cell-based, Staphylococcus aureus; settings: Staphylococcus aureus, IID670; 10^6 cells/ml; Gram +; read-out: MIC
[3] = system: S. epidermidis IID 866; assay: as above; assay type: cell-based; settings: Staphylococcus epidermidis, IID866; 10^6 cells/ml; Gram +; read-out: MIC
[4] = system: S. pneumoniae IID 552; assay: as above; assay type: cell-based; settings: Streptococcus pneumoniae, IID552; 10^6 cells/ml; Gram +; read-out: MIC
[5] = system: E. faecalis IID 682; assay: as above; assay type: cell-based; settings: Enterococcus faecalis, IID682; 10^6 cells/ml; Gram +; read-out: MIC
[6] = system: E. coli ATCC 10536; assay: as above; assay type: cell-based, Escherichia coli; settings: Escherichia coli, ATCC10536; 10^6 cells/ml; Gram -; read-out: MIC
[7] = system: E. coli ML 4707; assay: as above; assay type: cell-based, Escherichia coli; settings: Escherichia coli, read-out: MIC
[8] = system: Proteus vulgaris IFO 3167; assay: as above; assay type: cell-based; settings: Proteus vulgaris, IFO3167; 10^6 cells/ml; Gram -; read-out: MIC
[9] = system: P. mirabilis IID 994; assay: as above; assay type: cell-based; settings: Proteus mirabilis, IID994; 10^6 cells/ml; Gram -; read-out: MIC
[10] = system: Morganella morganii IID 602; assay: as above; assay type: cell-based; settings: Morganella morganii, IID602; 10^6 cells/ml; Gram -; read-out: MIC
[11] = system: K. pneumoniae 1-220S; assay: as above; assay type: cell-based, Klebsiella pneumoniae; settings: Klebsiella pneumoniae, 1220S; 10^6 cells/ml; Gram -; read-out: MIC
[12] = system: Citrobacter freundii IID 976; assay: as above; assay type: cell-based; settings: Citrobacter freundii, IID976; 10^6 cells/ml; Gram -; read-out: MIC
[13] = system: Serratia marcescens IID 618; assay: as above; assay type: cell-based; settings: Serratia marcescens, IID618; 10^6 cells/ml; Gram -; read-out: MIC
[14] = system: Pseudomonas aeruginosa V-1; assay: as above; assay type: cell-based; settings: Pseudomonas aeruginosa, V1; 10^6 cells/ml; Gram -; read-out: MIC
[15] = system: P. aeruginosa IFO 12689; assay: as above; assay type: cell-based, Pseudomonas aeruginosa; settings: Pseudomonas aeruginosa, IFO12689; 10^6 cells/ml; Gram -; read-out: MIC
[16] = system: P. aeruginosa IID 1210; assay: as above; assay type: cell-based, Pseudomonas aeruginosa; settings: Pseudomonas aeruginosa, IID1210; 10^6 cells/ml; Gram -; read-out: MIC
[17] = system: Yersinia enterocolitica IID 981; assay: as above; assay type: cell-based; settings: Yersinia enterocolitica, IID981; 10^6 cells/ml; Gram -; read-out: MIC
[18] = system: Bacteroides fragilis GM 7000; assay: as above; assay type: cell-based; settings: Bacteroides fragilis, GM7000; 10^6 cells/ml; Gram -; read-out: MIC
[19] = system: B. fragilis 0558; assay: as above; assay type: cell-based, Bacteroides fragilis; settings: Bacteroides fragilis, 0558; 10^6 cells/ml; Gram -; read-out: MIC
[20] = system: B. distasonis 8503; assay: as above; assay type: cell-based; settings: Parabacteroides distasonis, 8503; 10^6 cells/ml; Gram -; read-out: MIC
[21] = system: B. thetaiotaomicron (0661); assay: as above; assay type: cell-based; settings: Bacteroides thetaiotaomicron; 10^6 cells/ml; Gram -; read-out: MIC
[22] = system: B. vulgatus KYA 29327; assay: as above; assay type: cell-based; settings: Phocaeicola vulgatus, KYA29327; 10^6 cells/ml; Gram -; read-out: MIC
[23] = system: Fusobacterium mortiferum 4249; assay: as above; assay type: cell-based; settings: Fusobacterium mortiferum, 4249; 10^6 cells/ml; Gram -; read-out: MIC
[24] = system: F. necrophorum S-45; assay: as above; assay type: cell-based; settings: Fusobacterium necrophorum, S45; 10^6 cells/ml; Gram -; read-out: MIC
[25] = system: F. varium KYA 8501; assay: as above; assay type: cell-based; settings: Fusobacterium varium, KYA8501; 10^6 cells/ml; Gram -; read-out: MIC
[26] = system: Eubacterium lentum GAI 5242; assay: as above; assay type: cell-based; settings: Eggerthella lenta, GAI5242; 10^6 cells/ml; Gram +; read-out: MIC
[27] = system: Propionibacterium acens 11828; assay: as above; assay type: cell-based; settings: Propionibacterium, 11828; 10^6 cells/ml; Gram +; read-out: MIC
[28] = system: Peptococcus magnus KY 017; assay: as above; assay type: cell-based; settings: Finegoldia magna, KY017; 10^6 cells/ml; Gram +; read-out: MIC
[29] = system: C. perfringens KYA 13123; assay: microbe, parasite or virus in culture; assay type: cell-based; settings: Clostridium perfringens, KYA13123
[30] = system: C. ramosum; assay: MIC, in vitro antibacterial activity (standard strains); assay type: cell-based; settings: Thomasclavelia ramosa; 10^6 cells/ml; Gram +; read-out: MIC
[31] = system: Peptostreptococcus anaerobius KYA 27337; assay: as above; assay type: cell-based; settings: Peptostreptococcus anaerobius, KYA27337; 10^6 cells/ml; Gram +; read-out: MIC
[32] = system: Pst. micros UPI 5464-1; assay: as above; assay type: cell-based; settings: Parvimonas micra, UPI54641; 10^6 cells/ml; Gram +; read-out: MIC
[33] = ML4707, 10^6 cells/ml, Gram -, Table 1

Q: Which MIC [1] does the source give for `CNCC1CN(c2c(F)cc3c(=O)c(C(=O)O)cn(C4CC4)c3c2F)CC1C` (centres unmarked) [Example 13, 1-Cyclopropyl-6,8-difluoro-1,4-dihydro-7-(3-methylaminomethyl-4-methyl-1-pyrrolidinyl)-4-oxo-3-quinolinecarboxylic acid] here?
A: 0.025 µg/mL (≈ 0.0639 µM)

Q: And the MIC [2]?
A: 0.05 µg/mL (≈ 0.128 µM)

Q: And the MIC [3]?
A: 0.05 µg/mL (≈ 0.128 µM)

Q: And the MIC [4]?
A: 0.1 µg/mL (≈ 0.255 µM)

Q: And the MIC [5]?
A: 0.2 µg/mL (≈ 0.511 µM)

Q: And the MIC [6]?
A: 0.05 µg/mL (≈ 0.128 µM)

Q: What about the MIC [7, 33] of the same molecule?
A: 0.05 µg/mL (≈ 0.128 µM)

Q: And the MIC [8]?
A: 0.05 µg/mL (≈ 0.128 µM)

Q: What about the MIC [9] of the same molecule?
A: 0.2 µg/mL (≈ 0.511 µM)

Q: And the MIC [10]?
A: 0.2 µg/mL (≈ 0.511 µM)

Q: And the MIC [11]?
A: 0.2 µg/mL (≈ 0.511 µM)

Q: And the MIC [12]?
A: 0.05 µg/mL (≈ 0.128 µM)

Q: And the MIC [13]?
A: 0.2 µg/mL (≈ 0.511 µM)

Q: And the MIC [14]?
A: 0.39 µg/mL (≈ 0.996 µM)

Q: What about the MIC [15] of the same molecule?
A: 3.13 µg/mL (≈ 8 µM)

Q: What about the MIC [16] of the same molecule?
A: 1.56 µg/mL (≈ 3.99 µM)

Q: What about the MIC [17] of the same molecule?
A: 0.1 µg/mL (≈ 0.255 µM)

Q: And the MIC [18]?
A: 0.78 µg/mL (≈ 1.99 µM)

Q: And the MIC [19]?
A: 0.78 µg/mL (≈ 1.99 µM)

Q: And the MIC [20]?
A: 3.13 µg/mL (≈ 8 µM)

Q: What about the MIC [21] of the same molecule?
A: 3.13 µg/mL (≈ 8 µM)

Q: What about the MIC [22] of the same molecule?
A: 1.56 µg/mL (≈ 3.99 µM)

Q: What about the MIC [23] of the same molecule?
A: 0.39 µg/mL (≈ 0.996 µM)

Q: What about the MIC [24] of the same molecule?
A: 0.39 µg/mL (≈ 0.996 µM)

Q: What about the MIC [25] of the same molecule?
A: 1.56 µg/mL (≈ 3.99 µM)

Q: And the MIC [26]?
A: 0.78 µg/mL (≈ 1.99 µM)

Q: What about the MIC [27] of the same molecule?
A: 1.56 µg/mL (≈ 3.99 µM)

Q: And the MIC [28]?
A: ≤ 0.05 µg/mL

Q: And the MIC [29]?
A: 0.2 µg/mL (≈ 0.511 µM)

Q: And the MIC [30]?
A: 0.78 µg/mL (≈ 1.99 µM)

Q: What about the MIC [31] of the same molecule?
A: 0.2 µg/mL (≈ 0.511 µM)

Q: What about the MIC [32] of the same molecule?
A: 0.78 µg/mL (≈ 1.99 µM)

Q: Which MIC [1] does the source give for `C[C@H]1CN(c2c(F)cc3c(=O)c(C(=O)O)cn(C4CC4)c3c2Cl)C[C@H]1N` (relative stereo) [Example 16, 7-(cis-3-Amino-4-methyl-1-pyrrolidinyl)-8-chloro-1-cyclopropyl-6-fluoro-1,4-dihydro-4-oxo-3-quinolinecarboxylic acid] here?
A: 0.0125 µg/mL (≈ 0.0329 µM)

Q: And the MIC [2]?
A: 0.05 µg/mL (≈ 0.132 µM)

Q: What about the MIC [3] of the same molecule?
A: 0.05 µg/mL (≈ 0.132 µM)

Q: What about the MIC [4] of the same molecule?
A: 0.1 µg/mL (≈ 0.263 µM)

Q: And the MIC [5]?
A: 0.1 µg/mL (≈ 0.263 µM)

Q: What about the MIC [6] of the same molecule?
A: 0.0125 µg/mL (≈ 0.0329 µM)

Q: What about the MIC [7, 33] of the same molecule?
A: 0.0063 µg/mL (≈ 0.0166 µM)

Q: What about the MIC ([7]; ML4707, Table 2, strain of the mouse infection) of the same molecule?
A: 0.0125 µg/mL (≈ 0.0329 µM)

Q: And the MIC [8]?
A: 0.0125 µg/mL (≈ 0.0329 µM)

Q: What about the MIC [9] of the same molecule?
A: 0.025 µg/mL (≈ 0.0658 µM)

Q: What about the MIC [10] of the same molecule?
A: 0.05 µg/mL (≈ 0.132 µM)

Q: And the MIC [11]?
A: 0.05 µg/mL (≈ 0.132 µM)

Q: And the MIC [12]?
A: 0.025 µg/mL (≈ 0.0658 µM)

Q: And the MIC [13]?
A: 0.05 µg/mL (≈ 0.132 µM)

Q: What about the MIC [14] of the same molecule?
A: 0.1 µg/mL (≈ 0.263 µM)

Q: And the MIC [15]?
A: 0.39 µg/mL (≈ 1.03 µM)

Q: And the MIC [16]?
A: 0.39 µg/mL (≈ 1.03 µM)

Q: And the MIC [17]?
A: 0.05 µg/mL (≈ 0.132 µM)

Q: What about the MIC [18] of the same molecule?
A: 0.05 µg/mL (≈ 0.132 µM)

Q: What about the MIC [19] of the same molecule?
A: 0.05 µg/mL (≈ 0.132 µM)

Q: What about the MIC [20] of the same molecule?
A: 0.2 µg/mL (≈ 0.527 µM)

Q: And the MIC [21]?
A: 0.1 µg/mL (≈ 0.263 µM)

Q: What about the MIC [22] of the same molecule?
A: 0.05 µg/mL (≈ 0.132 µM)

Q: And the MIC [23]?
A: 0.1 µg/mL (≈ 0.263 µM)

Q: What about the MIC [24] of the same molecule?
A: 0.05 µg/mL (≈ 0.132 µM)

Q: What about the MIC [25] of the same molecule?
A: 0.78 µg/mL (≈ 2.05 µM)

Q: And the MIC [26]?
A: 0.05 µg/mL (≈ 0.132 µM)

Q: What about the MIC [27] of the same molecule?
A: 0.78 µg/mL (≈ 2.05 µM)

Q: And the MIC [28]?
A: 0.05 µg/mL (≈ 0.132 µM)

Q: And the MIC [29]?
A: 0.05 µg/mL (≈ 0.132 µM)

Q: And the MIC [30]?
A: 0.39 µg/mL (≈ 1.03 µM)

Q: What about the MIC [31] of the same molecule?
A: 0.1 µg/mL (≈ 0.263 µM)

Q: And the MIC [32]?
A: 0.1 µg/mL (≈ 0.263 µM)

From US4753953A, “Pyridonecarboxylic acid derivatives and antibacterial pharmaceutical compositions thereof” (priority 1985, dated 1988)
